Measurements as given in paper PMC12217462 (Antimicrobial Agents and Chemotherapy, 2025).
Values joined by “and” are separate entries in the source; they are usually repeats but may differ in a detail not shown here. Identical values can stand only once. Like-named read-outs stand apart in the source and are kept apart here.

Columns and labels:
HCT8 cells = test: Cytotoxicity on confluent monolayer HCT8 cells (Promega CellTiter Aqueous One MTS assay); type: cell-based, human; settings: 48 hours, highest final concentration 100 µM, two replicate experiments
Procedure: Human HCT8 cells were grown in tissue culture flasks until a confluent monolayer was achieved. […] Cells were incubated with the drug for 48 hours. Promega CellTiter Aqueous One Solution Cell Proliferation Assay (MTS) (PRG3580) was commercially obtained and used to ascertain cell viability, with […] measured using a Biotek microplate reader. Cells incubated in 0.5% DMSO served as a positive growth control and comparator arm.

Babesia duncani [1] = test: Propidium iodide-based in vitro dose-response assay, B. duncani-infected red blood cells, 384-well plates; type: cell-based; settings: for EC90: read-out: EC90 (95% CI)
Procedure: Frozen stocks of B. duncani were provided by the Ben Mamoun lab at Yale University. Culture maintenance was undertaken as described by Singh et al^18 with the following adaptations: Media, completed DMEM/F12 (cDMEM; 20% heat-inactivated fetal bovine serum (Sigma-Aldrich catalogue #12,306 C-500ML), 1 x HT media supplement (Sigma-Aldrich catalogue # H0137-10VL), 1 x L-glutamine (Gibco, catalogue # 25030–081), 1 x antibiotic-antimycotic (Gibco catalogue #15240–062), and 1 x gentamicin (Gibco catalogue #15710–072)), was changed every other day and cultures were kept in a modular incubator gassed with 2% O2, 5% CO2, 93% N2 at 37°C. Passage occurred once a week into fresh blood at 1%–2% parasitemia, 5% hematocrit, and fresh A + blood was obtained once a week from the University of Vermont Medical Center Blood Bank. Four days before the start of drug assay testing, a 10 mL, 5% hematocrit culture was infected to 2% parasitemia with Babesia duncani. One day before the start, the media was changed, and parasitemia was assessed by light microscopy examination of Giemsa-stained thin blood smears with a minimum of 500 red blood cells counted.
Fresh A + blood was washed three times, and a stock 10% hematocrit (HCT) solution of uninfected red cells in completed F12/DMEM media (cDMEM) was created. In a 96-well plate, a pellet from a vigorously growing (≥20% parasitemia) culture was used to create a 10% hematocrit starting well that was then serially diluted five times with the stock 10% hematocrit solution. 25 µL of each serial dilution was transferred to a white, clear-bottom 384-well plate (Falcon, catalog #353963) in triplicate before 25 µL of cDMEM was added to each well, followed by 25 µL of 0.6% Triton-X, 22.5 µM PI in phosphate-buffered solution. The 384-well plate was then shaken for 30 seconds, incubated at 37°C for 1 hour (in the dark), then moved to room temperature in the dark. After 24 hours, the plate was read using a Synergy H1 (BioTek, Winooski, VT) with excitation = 535 nm, emission = 615 nm, sensitivity = 150, and readings taken from the bottom of the wells. Blood smears were made from select undiluted starting wells and stained with Giemsa, and parasitemia was calculated manually from a minimum of 1,000 counted red blood cells. The experiment was repeated twice.
(§1) Prior to the removal of the culture(s) from the modular incubator, fresh A + blood was washed three times with PSG +and compounds (in DMSO stocks) to be tested were prepared in a 96-well plate by serial dilution in cDMEM. Once prepared, the culture(s) were removed from the modular incubator, collected, and washed once with 7 mL of cDMEM. A 10% hematocrit, 5% parasitemia stock in cDMEM was made, and 25 µL aliquoted into a 384-well plate with constant agitation, followed by 25 µL of compound dilution (quadruplicates). The positive growth control was given 25 µL of 0.5% dimethyl sulfoxide (DMSO) in cDMEM (final 0.25% DMSO), and the negative growth control was 25 µL of 50 µM WR99210 (0.5% DMSO) (final 25 µM WR99210, 0.25% DMSO). Plates were incubated as previously described, smears of the positive growth control were made, and the plates were read as previously described. Smears were stained by Giemsa, and a minimum of 1,000 RBCs were counted to determine parasitemia. Dose-response assays were repeated twice.
Pilot dose-response experiments were performed using WR99210 (a DHFR inhibitor with known effect on Babesia duncani), DMSO vehicle, and standard of care drugs atovaquone, clindamycin, quinine, and azithromycin ([20]).
The positive growth control was treated with 25 µL of 0.5% dimethyl sulfoxide (DMSO) in cDMEM (final 0.25% DMSO), and the negative growth control with 25 µL of 50 µM WR99210 (0.5% DMSO) (final 25 µM WR99210, 0.25% DMSO). The plate was incubated for 48 hours and then the plate was stained and read as previously described.

B. divergens = tested on: B. divergens; design: method as in earlier work; settings: ref 35 (Vanheer et al.); cited from earlier work
Babesia duncani [2] = test: Bug Box single-concentration screen, PI assay in 384-well plates; type: cell-based; settings: read-out: Inhibition in Bug Box screen (hit definition)
Procedure: as §1
The Bug Box is a collection of 40 compounds with known antimicrobial and/or bioactivity, which was provided by the Structural Genomics Consortium (SGC)-Toronto. The full list of compounds is available in the supplement. They were obtained in 10 mM aliquots and screened in 384-well plates at 1 µM and 5 µM dilutions with four technical replicates per dilution. Hits were defined as those compounds with at least 80% inhibition. Hits were validated by dose-response curves using commercially obtained compounds with verified purity. The only exception to this was in the verification of compound M7, which is a proprietary compound that could be obtained only from SGC-Toronto. Dose-response curves were created from two independent experiments, each with nine dilutions of the drug.

P. falciparum = tested on: P. falciparum; design: method as in PMID 26199860, PMID 33541085; settings: depending on the strain tested; cited from earlier work
[3] = cited from earlier work
Babesia duncani [4] = settings: cited from earlier work
[5] = Cytotoxicity on confluent monolayer HCT8 cells (Promega CellTiter Aqueous One MTS assay); type: cell-based; settings: human HCT8 cells
[6] = design: method as in PMID 22553374; settings: oral, 28-day, once-daily dosing study in humans; cited from earlier work
solid tumor cells = tested on: solid tumor cells; design: method as in PMID 19344997; settings: cited from earlier work
[7] = tested on: normal cell lines (human mammary and renal epithelial cells, among others); design: method as in PMID 19344997; settings: cited from earlier work
malignant cells = tested on: malignant cells; design: method as in PMID 19344997; settings: malignant cells treated; cited from earlier work
liquid tumor cell lines = tested on: liquid tumor cell lines; design: method as in PMID 19344997; settings: cited from earlier work
normal cells = tested on: normal cells; design: method as in PMID 19344997; settings: cited from earlier work
[8] = Babesia duncani, Erythrocyte, Table 1, B. duncani, two replicate 9-point dilution experiments, combined data, read-out: EC50
[9] = Babesia duncani, Erythrocyte, 48 h, B. duncani in vitro, 48 hours of incubation, PI staining, read-out: EC50
[10] = Babesia duncani, Erythrocyte, 48 h, given in Fig 2 and Fig 3B, nine-point serial dilution, 48 hours, experiments repeated twice, read-out: EC50 (95% CI)
[11] = Babesia duncani, Erythrocyte, given in Fig 2 and Fig 3B, nine-point serial dilution, 48 hours, experiments repeated twice
[12] = screened at 5 µM, four technical replicates
[13] = Babesia duncani, Erythrocyte, B. duncani, read-out: In vitro IC90
[14] = Babesia duncani, Erythrocyte, conversion of B. duncani IC90, read-out: Free plasma concentration equivalent to IC90
[15] = 12 mg given orally (PO) thrice weekly
[16] = B. duncani in vitro, 48 hours of incubation, PI staining, read-out: EC50

O=C(/C=C/c1ccc(CN(CCO)CCc2c[nH]c3ccccc23)cc1)NO [Dacinostat]
TC50 HCT8 (HCT8 cells): 150000 nM
EC50 (Babesia duncani [1]; [8]): 23 nM
EC50 (B. divergens): 112 nM

CC[C@H]1OC(=O)[C@H](C)[C@@H](O[C@H]2C[C@@](C)(OC)[C@@H](O)[C@H](C)O2)[C@H](C)[C@@H](O[C@@H]2O[C@H](C)C[C@H](N(C)C)[C@H]2O)[C@](C)(O)C[C@@H](C)CN(C)[C@H](C)[C@@H](O)[C@]1(C)O [Azithromycin]
EC50 (Babesia duncani [1]; [9]): 12400 nM
EC50 (Babesia duncani [1]; [10]): 12000 nM
EC90 (Babesia duncani [1]; [11]): 28000 nM

O=C(/C=C/c1cccc(S(=O)(=O)Nc2ccccc2)c1)NO [Belinostat]
TC50 HCT8 (HCT8 cells): 90000 nM
EC50 (Babesia duncani [1]; [8]): 150 nM

CCC[C@@H]1C[C@@H](C(=O)N[C@@H]([C@H]2O[C@H](SC)[C@H](O)[C@@H](O)[C@H]2O)[C@H](C)Cl)N(C)C1 [Clindamycin]
EC50 (Babesia duncani [1]; [10]): > 50000 nM
Inhibition of B. duncani growth (in words) (Babesia duncani [1]; dose-response assay, 48 hours): appeared not to inhibit at all

COc1cc(Cc2cnc(N)nc2N)cc(OC)c1OC [Trimethoprim]
EC50 (Babesia duncani [1]; [9]): 2700 nM
EC90 (Babesia duncani [1]; [11]): 4500 nM
inhibition at 5 µM (Babesia duncani [2]; [12]): > 80%

CCN(CC)Cc1ccc2cc(COC(=O)Nc3ccc(C(=O)NO)cc3)ccc2c1 [Givinostat]
TC50 HCT8 (HCT8 cells): 43000 nM
EC50 (Babesia duncani [1]; [8]): 220 nM

O=C(CCCCCCC(=O)Nc1ccccc1)NO [Vorinostat]
TC50 HCT8 (µM) (HCT8 cells): No toxicity

Cn1cc(CNCC2CCN(c3ncc(C(=O)NO)cn3)CC2)c2ccccc21 [Quisinostat]
TC50 HCT8 (HCT8 cells): 170000 nM
EC50 (Babesia duncani [1]; [8]): 4.5 nM
IC90 (Babesia duncani [1]; [13]): 10 nM
IC90 (Babesia duncani [1]; [14]): ~0.004 µg/mL
EC50 (B. divergens): 4.6 nM
EC50 (P. falciparum): 5 to 7 nM
Area under the curve (AUC) [3, 15]: 18 ng*H/mL
Peak plasma concentration (Cmax) [3, 15]: 1.9 ng/mL

CC1(C)N=C(N)N=C(N)N1OCCCOc1cc(Cl)c(Cl)cc1Cl [WR99210]
EC50 (Babesia duncani [1]; [16]): 8.3 nM and ~8.3 nM
EC90 (Babesia duncani [1]; given in Fig 2 and Fig 3B, nine-point serial dilution, 48 hours, experiments repeated twice): 14 nM

Nc1ccccc1NC(=O)c1ccc(CNc2nccc(-c3cccnc3)n2)cc1 [Mocetinostat]
TC50 HCT8 (HCT8 cells): 56000 nM
EC50 (Babesia duncani [1]; [8]): 2500 nM

O=C1C(O)=C([C@H]2CC[C@H](c3ccc(Cl)cc3)CC2)C(=O)c2ccccc21 [Atovaquone]
EC50 (Babesia duncani [1]; [16]): 517 nM
EC50 (Babesia duncani [1]; [9]): 518 nM
EC50 (Babesia duncani [1]; [10]): 520 nM
EC90 (Babesia duncani [1]; [11]): 780 nM
inhibition at 5 µM (Babesia duncani [2]; [12]): > 80%
EC50 (Babesia duncani [4]; Babesia duncani, SYBR green assay, ref 9 (Abraham et al.)): 500 nM
EC50 (Babesia duncani [4]; later Babesia duncani testing, same lab group): 72 nM

O=C(NO)c1cnc(N2C[C@@H]3[C@H](C2)[C@H]3NCc2ccc3cc(F)ccc3n2)nc1 [Nanatinostat]
TC50 HCT8 (HCT8 cells): 44000 nM
EC50 (Babesia duncani [1]; [16]): 23.8 nM
EC50 (Babesia duncani [1]; [9]): 23 nM
EC50 (Babesia duncani [1]; [8]): 24 nM
IC90 (Babesia duncani [1]; [13]): 64 nM
IC90 (Babesia duncani [1]; [14]): ~0.025 µg/mL
EC50 at 48 h [5]: 56200 nM
Protocol defined maximum tolerated dose [6]: 80 mg
Cmax ([3]; single 20 mg oral dose): 186 ng/mL

CCCCc1nc2cc(/C=C/C(=O)NO)ccc2n1CCN(CC)CC [Pracinostat]
TC50 HCT8 (HCT8 cells): 450000 nM
EC50 (Babesia duncani [1]; [8]): 160 nM

c1ccc2c(c1)[I+]c1ccccc1-2 [diphenylene iodonium chloride, Diphenyleneiodonium chloride]
EC50 (Babesia duncani [1]; [9]): 550 nM
EC90 (Babesia duncani [1]; [11]): 1600 nM
inhibition at 5 µM (Babesia duncani [2]; [12]): > 80%

Cc1[nH]c2ccccc2c1CCNCc1ccc(/C=C/C(=O)NO)cc1 [Panobinostat]
TC50 HCT8 (HCT8 cells): 130000 nM
EC50 (Babesia duncani [1]; [9]): 8 nM
EC50 (Babesia duncani [1]; [8]): 8.4 nM
EC90 (Babesia duncani [1]; [11]): 37 nM
inhibition at 5 µM (Babesia duncani [2]): > 80%
LD90 (solid tumor cells): less than 500 nM
LD90 [7]: > 5 µM
Increase in apoptotic signaling (malignant cells): 10- to 11 fold
EC50 (B. divergens): 27.2 nM
LD90 (liquid tumor cell lines): less than 100 nM
Caspase expression compared with control (normal cells): no increase
EC50 (P. falciparum): 10 to 30 nM

Nc1ccccc1NC(=O)c1ccc(CNC(=O)OCc2cccnc2)cc1 [Entinostat]
TC50 HCT8 (HCT8 cells): 110000 nM
EC50 (Babesia duncani [1]; [8]): 23000 nM

C=C[C@H]1C[N@@]2CC[C@H]1C[C@H]2[C@H](O)c1ccnc2ccc(OC)cc12 [Quinine]
EC50 (Babesia duncani [1]; [9]): 17500 nM
EC50 (Babesia duncani [1]; [10]): 18000 nM
EC90 (Babesia duncani [1]; [11]): 33000 nM
